The numbers were not newly measured in patent publication US12527979B2, “Treatment of HER3-mutated cancer by administration of anti-HER3 antibody-drug conjugate” (DAIICHI SANKYO COMPANY, LIMITED, priority 2018, dated 2026), which cites them from elsewhere.

Where two headings read alike, the source gives them in different places.

One series addresses T1, topoisomerase I (Homo sapiens, UniProt P11387).
T1 sequence (P11387 1-765): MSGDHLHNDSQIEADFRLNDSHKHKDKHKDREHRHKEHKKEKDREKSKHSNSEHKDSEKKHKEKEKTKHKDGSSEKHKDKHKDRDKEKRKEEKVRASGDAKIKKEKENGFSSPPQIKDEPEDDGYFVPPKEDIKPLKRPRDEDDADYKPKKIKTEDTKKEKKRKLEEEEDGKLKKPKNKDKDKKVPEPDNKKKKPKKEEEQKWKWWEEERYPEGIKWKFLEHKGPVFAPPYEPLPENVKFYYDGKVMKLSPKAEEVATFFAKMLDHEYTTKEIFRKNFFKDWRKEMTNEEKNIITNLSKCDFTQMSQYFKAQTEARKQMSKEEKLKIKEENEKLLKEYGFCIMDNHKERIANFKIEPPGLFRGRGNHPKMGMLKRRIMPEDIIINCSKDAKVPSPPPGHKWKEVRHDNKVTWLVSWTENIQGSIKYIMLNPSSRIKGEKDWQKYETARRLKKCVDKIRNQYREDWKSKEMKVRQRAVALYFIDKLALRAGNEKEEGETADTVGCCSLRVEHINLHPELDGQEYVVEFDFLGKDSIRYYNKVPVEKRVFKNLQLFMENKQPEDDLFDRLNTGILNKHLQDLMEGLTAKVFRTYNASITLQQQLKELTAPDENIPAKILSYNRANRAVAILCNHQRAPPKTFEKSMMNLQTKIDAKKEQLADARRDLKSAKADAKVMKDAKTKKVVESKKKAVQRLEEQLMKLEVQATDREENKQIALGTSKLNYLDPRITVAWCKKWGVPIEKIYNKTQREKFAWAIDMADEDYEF

The test system of series [1] is HER3-mutated cancers. Conditions: in vitro and in vivo, in situations where HER2 is overexpressed.
In series [2] the test system is HER3-mutated cancers. Conditions: clinical studies.

In the case of `CC[C@@]1(O)C(=O)OCc2c1cc1n(c2=O)Cc2c-1nc1cc(F)c(C)c3c1c2[C@@H](NC(=O)CO)CC3`, on topoisomerase I, the “topoisomerase I inhibitory effect” value was “confirmed to have a topoisomerase I inhibitory effect”. With `CS(=O)(=O)CCNCc1ccc(-c2ccc3ncnc(Nc4ccc(OCc5cccc(F)c5)c(Cl)c4)c3c2)o1` [lapatinib], the “effectiveness against HER3-mutated cancers” value in the series on HER3-mutated cancers [1] is given as “exhibited effectiveness”. Turning to `CCOc1cc2ncc(C#N)c(Nc3ccc(OCc4ccccn4)c(Cl)c3)c2cc1NC(=O)/C=C/CN(C)C` [neratinib], the “effectiveness against HER3-mutated cancers” value in the series with HER3-mutated cancers [2] is on record as “no effectiveness”.
